US20240151732A1, “EX VIVO METHOD FOR ANALYSING A TISSUE SAMPLE USING PROTEOMIC PROFILE MATCHING, AND ITS USE FOR THE DIAGNOSIS, PROGNOSIS OF PATHOLOGIES AND FOR PREDICTING RESPONSE TO TREATMENTS” (Université de Bordeaux, priority 2021, published 2024)

How the values were obtained:
advanced HCC [1] = conditions: phase III study, first line; Kudo et al. [10]; cited from earlier work
HUH7 cells = assay: growth of HUH7 cells; format: cell-based; conditions: in our hands
HCC cells = conditions: in vitro and in vivo; Xu et al. [23]; cited from earlier work
advanced HCC [2] = conditions: SHARP test; proportion of good responders to sorafenib; cited from earlier work

COc1cc2nccc(Oc3ccc(NC(=O)NC4CC4)c(Cl)c3)c2cc1C(N)=O [lenvatinib]
overall survival compared to sorafenib (advanced HCC [1]): non-inferiority

Cc1ncc(C[n+]2csc(CCO)c2C)c(=O)[nH]1 [oxythiamine]
effect on the growth of HUH7 cells (HUH7 cells): did not confirm the effect | efficacy in HCC cells (HCC cells): effective

CNC(=O)c1cc(Oc2ccc(NC(=O)Nc3ccc(Cl)c(C(F)(F)F)c3)cc2)ccn1 [sorafenib]
objective response (advanced HCC [2]): 2%
